{"source": "PubChem BioAssay AID248", "about": "(DTP/NCI, 2004)", "tested_on": "L1210 leukemia ip in BDF1 mice, survival T/C", "assay": "NCI In Vivo Anticancer Drug Screen. Data for tumor model L1210 Leukemia (intraperitoneal) in B6D2F1 (BDF1) mice", "details": "endpoint: mean survival time, higher = longer survival", "method_in_brief": "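Transplanted-tumor mice were given test agent; controls received vehicle only. Survival readings from the two groups were divided (treated over control).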", "key": {"[1]": {"details": "dose: 100.0 mg/kg/injection, schedule: Q01DX001 (ip), vehicle: Klucel (hydroxypropylcellulose) (HPC)"}, "[2]": {"details": "dose: 200.0 mg/kg/injection, schedule: Q01DX001 (ip), vehicle: Klucel (hydroxypropylcellulose) (HPC)"}, "[3]": {"details": "dose: 400.0 mg/kg/injection, schedule: Q01DX001 (ip), vehicle: Klucel (hydroxypropylcellulose) (HPC)"}, "[4]": {"details": "dose: 100.0 mg/kg/injection, schedule: Q01DX001 (ip), vehicle: carboxymethylcellulose (CMC)"}, "[5]": {"details": "dose: 200.0 mg/kg/injection, schedule: Q01DX001 (ip), vehicle: carboxymethylcellulose (CMC)"}, "[6]": {"details": "dose: 400.0 mg/kg/injection, schedule: Q01DX001 (ip), vehicle: carboxymethylcellulose (CMC)"}, "[7]": {"details": "dose: 100.0 mg/kg/injection, schedule: Q01DX009 (ip), vehicle: Klucel (hydroxypropylcellulose) (HPC)"}, "[8]": {"details": "dose: 200.0 mg/kg/injection, schedule: Q01DX009 (ip), vehicle: Klucel (hydroxypropylcellulose) (HPC)"}, "[9]": {"details": "dose: 100.0 mg/kg/injection, schedule: Q04DX003 (ip), vehicle: Klucel (hydroxypropylcellulose) (HPC)"}}, "note": "“And” between values parts separate entries of the source, which are not always exact repeats. Equal values may be shown once. Toxic doses and inconclusive results are not listed."}
{"smiles": "CSc1ncc2c(=O)n(C)[nH]c2n1", "values": [{"measurement": "T/C", "setting": "[1]", "value": "93 % of control"}, {"measurement": "T/C", "setting": "[2]", "value": "92 % of control"}, {"measurement": "T/C", "setting": "[3]", "value": "90 % of control"}]}
{"smiles": "Cc1ccc(S(=O)(=O)Nc2ccccc2N=Cc2ccc(N(CCCl)CCCl)cc2)cc1", "values": [{"measurement": "T/C", "setting": "[4]", "value": "115 % of control"}, {"measurement": "T/C", "setting": "[5]", "value": "106 % of control"}, {"measurement": "T/C", "setting": "[6]", "value": "90 % of control"}]}
{"smiles": "CCCCCCCCCCCCCCCCN1CCCN(CCCCCCCCCCCCCCCC)CC1", "values": [{"measurement": "T/C", "setting": "dose: 25.0 mg/kg/injection, schedule: Q01DX009 (ip), vehicle: saline", "value": "107 % of control and 113 % of control"}, {"measurement": "T/C", "setting": "dose: 50.0 mg/kg/injection, schedule: Q01DX009 (ip), vehicle: saline", "value": "95 % of control and 100 % of control"}, {"measurement": "T/C", "setting": "dose: 100.0 mg/kg/injection, schedule: Q01DX009 (ip), vehicle: saline", "value": "94 % of control and 102 % of control"}, {"measurement": "T/C", "setting": "dose: 200.0 mg/kg/injection, schedule: Q01DX009 (ip), vehicle: saline", "value": "91 % of control"}]}
{"smiles": "CC1=CC(=O)C=CC1(C)C", "values": [{"measurement": "T/C", "setting": "[1]", "value": "100 % of control"}, {"measurement": "T/C", "setting": "[7]", "value": "94 % of control"}, {"measurement": "T/C", "setting": "[2]", "value": "100 % of control"}, {"measurement": "T/C", "setting": "[8]", "value": "94 % of control"}, {"measurement": "T/C", "setting": "[3]", "value": "108 % of control"}]}
{"smiles": "[NH-]c1ccccc1C(=O)O.[NH-]c1ccccc1C(=O)O.[Zn+2]", "values": [{"measurement": "T/C", "setting": "dose: 12.5 mg/kg/injection, schedule: Q01DX009 (ip), vehicle: Klucel (hydroxypropylcellulose) (HPC)", "value": "98 % of control"}, {"measurement": "T/C", "setting": "dose: 25.0 mg/kg/injection, schedule: Q01DX009 (ip), vehicle: Klucel (hydroxypropylcellulose) (HPC)", "value": "97 % of control"}, {"measurement": "T/C", "setting": "dose: 25.0 mg/kg/injection, schedule: Q04DX003 (ip), vehicle: Klucel (hydroxypropylcellulose) (HPC)", "value": "97 % of control"}, {"measurement": "T/C", "setting": "dose: 50.0 mg/kg/injection, schedule: Q01DX009 (ip), vehicle: Klucel (hydroxypropylcellulose) (HPC)", "value": "93 % of control"}, {"measurement": "T/C", "setting": "dose: 50.0 mg/kg/injection, schedule: Q04DX003 (ip), vehicle: Klucel (hydroxypropylcellulose) (HPC)", "value": "90 % of control"}, {"measurement": "T/C", "setting": "[9]", "value": "94 % of control"}]}
{"smiles": "CC(C)Cn1cnc2c(=S)nc(N)[nH]c21", "values": [{"measurement": "T/C", "setting": "dose: 6.0 mg/kg/injection, schedule: Q01DX015 (ip), vehicle: other", "value": "107 % of control"}, {"measurement": "T/C", "setting": "dose: 9.0 mg/kg/injection, schedule: Q01DX015 (ip), vehicle: carboxymethylcellulose (CMC)", "value": "103 % of control"}, {"measurement": "T/C", "setting": "dose: 9.0 mg/kg/injection, schedule: Q01DX015 (ip), vehicle: other", "value": "111 % of control"}, {"measurement": "T/C", "setting": "dose: 13.0 mg/kg/injection, schedule: Q01DX015 (ip), vehicle: carboxymethylcellulose (CMC)", "value": "104 % of control"}, {"measurement": "T/C", "setting": "dose: 20.0 mg/kg/injection, schedule: Q01DX015 (ip), vehicle: carboxymethylcellulose (CMC)", "value": "109 % of control"}, {"measurement": "T/C", "setting": "dose: 21.0 mg/kg/injection, schedule: Q01DX015 (ip), vehicle: other", "value": "150 % of control"}, {"measurement": "T/C", "setting": "dose: 22.0 mg/kg/injection, schedule: Q01DX001 (ip), vehicle: carboxymethylcellulose (CMC)", "value": "114 % of control"}, {"measurement": "T/C", "setting": "dose: 44.0 mg/kg/injection, schedule: Q01DX015 (ip), vehicle: carboxymethylcellulose (CMC)", "value": "109 % of control"}, {"measurement": "T/C", "setting": "dose: 60.0 mg/kg/injection, schedule: Q01DX015 (ip), vehicle: other", "value": "124 % of control"}, {"measurement": "T/C", "setting": "dose: 66.0 mg/kg/injection, schedule: Q01DX015 (ip), vehicle: carboxymethylcellulose (CMC)", "value": "98 % of control"}, {"measurement": "T/C", "setting": "[4]", "value": "155 % of control"}, {"measurement": "T/C", "setting": "dose: 100.0 mg/kg/injection, schedule: Q01DX015 (ip), vehicle: carboxymethylcellulose (CMC)", "value": "98 % of control"}, {"measurement": "T/C", "setting": "dose: 100.0 mg/kg/injection, schedule: Q01DX015 (ip), vehicle: other", "value": "121 % of control"}, {"measurement": "T/C", "setting": "[5]", "value": "153 % of control and 161 % of control"}, {"measurement": "T/C", "setting": "[6]", "value": "112 % of control"}]}
{"smiles": "CCc1c(C#N)oc2ccc(O)cc12", "values": [{"measurement": "T/C", "setting": "[7]", "value": "96 % of control"}, {"measurement": "T/C", "setting": "dose: 100.0 mg/kg/injection, schedule: Q04DX002 (ip), vehicle: Klucel (hydroxypropylcellulose) (HPC)", "value": "95 % of control"}, {"measurement": "T/C", "setting": "[8]", "value": "91 % of control"}, {"measurement": "T/C", "setting": "dose: 200.0 mg/kg/injection, schedule: Q04DX002 (ip), vehicle: Klucel (hydroxypropylcellulose) (HPC)", "value": "101 % of control"}, {"measurement": "T/C", "setting": "dose: 400.0 mg/kg/injection, schedule: Q04DX002 (ip), vehicle: Klucel (hydroxypropylcellulose) (HPC)", "value": "95 % of control"}]}
{"smiles": "O=C(O)c1c(-c2ccccc2)[nH]c2ccccc2c1=O", "values": [{"measurement": "T/C", "setting": "[9]", "value": "88 % of control"}, {"measurement": "T/C", "setting": "dose: 200.0 mg/kg/injection, schedule: Q04DX003 (ip), vehicle: Klucel (hydroxypropylcellulose) (HPC)", "value": "87 % of control"}, {"measurement": "T/C", "setting": "dose: 400.0 mg/kg/injection, schedule: Q04DX003 (ip), vehicle: Klucel (hydroxypropylcellulose) (HPC)", "value": "90 % of control"}]}
{"smiles": "O=C(CCl)Nc1ccc(C(=O)O)cc1", "values": [{"measurement": "T/C", "setting": "dose: 3.0 mg/kg/injection, schedule: Q01DX Z (ip), vehicle: carboxymethylcellulose (CMC)", "value": "96 % of control"}, {"measurement": "T/C", "setting": "dose: 7.0 mg/kg/injection, schedule: Q01DX Z (ip), vehicle: carboxymethylcellulose (CMC)", "value": "102 % of control"}, {"measurement": "T/C", "setting": "dose: 15.0 mg/kg/injection, schedule: Q01DX Z (ip), vehicle: carboxymethylcellulose (CMC)", "value": "88 % of control"}, {"measurement": "T/C", "setting": "dose: 30.0 mg/kg/injection, schedule: Q01DX Z (ip), vehicle: carboxymethylcellulose (CMC)", "value": "104 % of control"}]}
